Measured values reported in patent publication US20230210999A1, “TARGETED PROTEASE DEGRADATION (TED) PLATFORM” (EUBULUS BIOTHERAPEUTICS INC., priority 2020, published 2023).
Read-outs that look alike come from different tables or passages of the source.

Experiments:
Type in all cases: cell-based, human
PC-3 = assay: Cell proliferation experiment, PC-3; details: Homo sapiens, PC-3, PC-3 cells; read-out: Inhibitory activity IC50 on PC-3
Procedure: Reagents: RPMI-1640 medium, McCoy's 5A medium, IMDM medium, MEM medium, L-15 medium, fetal bovine serum. Penicillin-Streptomycin double antibody, trypsin, etc., 2-mercaptoethanol, NEAA, pyruvate, etc.
The cells were cultured in conventional ways, and the cells should be passed at least 2 generations before plating. Cells at the logarithmic growth phase were collected, prepared into single cell suspensions and counted. The concentration of cells was adjusted to the desired concentration, and cells were inoculated into a 96-well cell culture plate at 100 μl per well. 100 μL of complete medium of the test compound were added to each well, set up 2 duplicate wells for each concentration, and diluted with a 5-fold gradient, and continued to culture for 72 h. All cells were subjected to IC50 test for corresponding samples. The experimental results are shown in Test Example 4.
The fluorescence intensity of each well was detected using the Alarm blue method, and IC50 was calculated.
IC50 was calculated according to the following formula:
Y=Max+(Min−Max)/[1+(X/IC50)×Slope]
wherein Min, Max and Slope represent the minimum, maximum and slope respectively.

NCIH82 cells = assay: Cell proliferation experiment, NCI-H82; details: Homo sapiens, NCI-H82, NCI-H82 cells; read-out: Inhibitory activity IC50 on NCI-H82
Outline: (§1)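 Single-cell suspensions from log-phase cultures, passaged at least 2 generations, are seeded into 96-well plates and given compound in complete medium. Following 72 h, fluorescence with Alamar blue is recorded and fitted for IC50.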

MV4;11 cells = assay: Cell proliferation experiment (Alamar blue, 72 h), MV4;11; details: read-out: Inhibitory activity IC50 on MV4;11
Outline: as §1

MDA-MB-231 cells = assay: Cell proliferation experiment, MDA-MB-231; details: Homo sapiens
Outline: as §1

[1] = Homo sapiens, MV4-11, MV4;11 cells
[2] = MDA-MB-231, MDA-MB-231 cells, read-out: Inhibitory activity IC50 on MDA-MB-231
[3] = MDA-MB-231, read-out: Inhibitory activity IC50 on MDA-MB-231

Structure (SMILES) | IC50 (PC-3) [µM] | IC50 (NCIH82 cells) [µM] | IC50 (MV4;11 cells; [1]) [µM] | IC50 (MDA-MB-231 cells; [2]) [µM] | IC50 (MV4;11 cells; MV4;11 cells) [µM] | IC50 (MDA-MB-231 cells; [3]) [µM]
CNC(=O)c1ccccc1Nc1nc(Nc2ccc(N3CCN(C(=O)NCCCOCCCNCCC#Cc4cccc5c4CN(C4CCC(=O)NC4=O)C5=O)CC3)cc2)ncc1Cl (centres unmarked) [UB-181070] | > 1 | 0.1 to 1 | 0.01 to 0.1 | 0.1 to 1 | – | –
O=C1CCC(N2Cc3cc(NC(=O)COCCOCCOCC(O)Cn4cc(-c5ccc(Nc6ncc7c(n6)-c6ccc(Cl)cc6C(c6c(F)cccc6F)=NC7)cc5)nn4)ccc3C2=O)C(=O)N1 (centres unmarked) [UB-181071] | > 1 | > 1 | 0.1 to 1 | > 1 | – | –
O=C1CCC(N2Cc3c(NC(=O)COCCOCCOCC(O)Cn4cc(-c5ccc(Nc6ncc7c(n6)-c6ccc(Cl)cc6C(c6c(F)cccc6F)=NC7)cc5)nn4)cccc3C2=O)C(=O)N1 (centres unmarked) [UB-181072] | > 1 | > 1 | 0.1 to 1 | > 1 | – | –
CNC(=O)c1ccccc1Nc1nc(Nc2ccc(N3CCN(C(=O)NCCOCCOCC(N)COCCC(=O)Nc4cccc5c4CN(C4CCC(=O)NC4=O)C5=O)CC3)cc2)ncc1Cl (centres unmarked) [UB-181073] | > 1 | > 1 | < 0.01 | > 1 | – | –
CNC(=O)c1ccccc1Nc1nc(Nc2ccc(N3CCN(C(=O)NCCOCC(O)COCCOCCC(=O)Nc4ccc5c(c4)CN(C4CCC(=O)NC4=O)C5=O)CC3)cc2)ncc1Cl (centres unmarked) [UB-181074] | > 1 | > 1 | 0.01 to 0.1 | > 1 | – | –
O=C1CCC(N2Cc3cc(NC(=O)CCOCCOCCOCC(O)Cn4cc(-c5ccc(Nc6ncc7c(n6)-c6ccc(Cl)cc6C(c6c(F)cccc6F)=NC7)cc5)nn4)ccc3C2=O)C(=O)N1 (centres unmarked) [UB-181075] | > 1 | 0.1 to 1 | > 1 | > 1 | – | –
O=C1CCC(N2Cc3cc(NC(=O)CCOCCOCC(O)COCCn4cc(-c5ccc(Nc6ncc7c(n6)-c6ccc(Cl)cc6C(c6c(F)cccc6F)=NC7)cc5)nn4)ccc3C2=O)C(=O)N1 (centres unmarked) [UB-181077] | > 1 | > 1 | – | > 1 | 0.1 to 1 | –
CNC(=O)c1ccccc1Nc1nc(Nc2ccc(N3CCN(C(=O)NCCOCC(O)COCCOCCC(=O)Nc4cccc5c4CN(C4CCC(=O)NC4=O)C5=O)CC3)cc2)ncc1Cl (centres unmarked) [UB-181079] | > 1 | 0.1 to 1 | < 0.01 | > 1 | – | –
CNC(=O)c1ccccc1Nc1nc(Nc2ccc(N3CCN(C(=O)NCC(O)COCCOCCOCCC(=O)Nc4ccc5c(c4)CN(C4CCC(=O)NC4=O)C5=O)CC3)cc2)ncc1Cl (centres unmarked) [UB-181081] | > 1 | > 1 | 0.01 to 0.1 | > 1 | – | –
CNC(=O)c1ccccc1Nc1nc(Nc2ccc(N3CCN(C(=O)NCC(O)COCCOCCOCCC(=O)Nc4cccc5c4CN(C4CCC(=O)NC4=O)C5=O)CC3)cc2)ncc1Cl (centres unmarked) [UB-181082] | > 1 | > 1 | 0.01 to 0.1 | > 1 | – | –
CNC(=O)c1ccccc1Nc1nc(Nc2ccc(N3CCN(C(=O)NCCCOCC(=O)COCC#Cc4cccc5c4CN(C4CCC(=O)NC4=O)C5=O)CC3)cc2)ncc1Cl (centres unmarked) [UB-181083] | > 1 | > 1 | 0.01 to 0.1 | > 1 | – | –
CNC(=O)c1ccccc1Nc1nc(Nc2ccc(N3CCN(C(=O)N[C@H]4CC[C@@H](NCCCOCCC#Cc5ccc6c(c5)CN(C5CCC(=O)NC5=O)C6=O)CC4)CC3)cc2)ncc1Cl (some centres unmarked) [UB-181084] | 0.1 to 1 | 0.1 to 1 | < 0.01 | 0.1 to 1 | – | –
CNC(=O)c1ccccc1Nc1nc(Nc2ccc(N3CCN(C(=O)NCCOCC(=O)COCCOCCC(=O)Nc4ccc5c(c4)CN(C4CCC(=O)NC4=O)C5=O)CC3)cc2)ncc1Cl (centres unmarked) [UB-181086] | > 1 | 0.1 to 1 | 0.01 to 0.1 | > 1 | – | –
CNC(=O)c1ccccc1Nc1nc(Nc2ccc(N3CCN(C(=O)N[C@H]4CC[C@@H](NCCCOCCC#Cc5cccc6c5CN(C5CCC(=O)NC5=O)C6=O)CC4)CC3)cc2)ncc1Cl (some centres unmarked) [UB-181087] | 0.1 to 1 | 0.1 to 1 | < 0.01 | > 1 | – | –
CNC(=O)c1ccccc1Nc1nc(Nc2ccc(N3CCN(C(=O)NCCOCC(COCCOCCC(=O)Nc4cccc5c4CN(C4CCC(=O)NC4=O)C5=O)NC)CC3)cc2)ncc1Cl (centres unmarked) [UB-181088] | > 1 | > 1 | < 0.01 | – | – | > 1
CNC(=O)c1ccccc1Nc1nc(Nc2ccc(N3CCN(C(=O)NCCOCC(COCCOCCC(=O)Nc4ccc5c(c4)CN(C4CCC(=O)NC4=O)C5=O)NC)CC3)cc2)ncc1Cl (centres unmarked) [UB-181090] | > 1 | > 1 | 0.01 to 0.1 | – | – | > 1
CNC(=O)c1ccccc1Nc1nc(Nc2ccc(N3CCN(C(=O)N[C@H]4CC[C@@H](NCCCOCC#Cc5cccc6c5CN(C5CCC(=O)NC5=O)C6=O)CC4)CC3)cc2)ncc1Cl (some centres unmarked) [UB-181091] | > 1 | 0.1 to 1 | < 0.01 | 0.1 to 1 | – | –
CNC(=O)c1ccccc1Nc1nc(Nc2ccc(N3CCN(C(=O)N[C@H]4CC[C@@H](NCCCOCCC(=O)Nc5cccc6c5CN(C5CCC(=O)NC5=O)C6=O)CC4)CC3)cc2)ncc1Cl (some centres unmarked) [UB-181092] | > 1 | > 1 | 0.01 to 0.1 | > 1 | – | –
CNC(=O)c1ccccc1Nc1nc(Nc2ccc(N3CCN(C(=O)N[C@H]4CC[C@@H](NCCCOCCC(=O)Nc5ccc6c(c5)CN(C5CCC(=O)NC5=O)C6=O)CC4)CC3)cc2)ncc1Cl (some centres unmarked) [UB-181093] | > 1 | > 1 | 0.01 to 0.1 | > 1 | – | –
CNC(=O)c1ccccc1Nc1nc(Nc2ccc(N3CCN(C(=O)NCCCOCCCNCCC#Cc4ccc5c(c4)CN(C4CCC(=O)NC4=O)C5=O)CC3)cc2)ncc1Cl (centres unmarked) [UB-181094] | > 1 | 0.1 to 1 | < 0.01 | > 1 | – | –
CNC(=O)c1ccccc1Nc1nc(Nc2ccc(N3CCN(C(=O)NCCCCOCCCCNCCC#Cc4ccc5c(c4)CN(C4CCC(=O)NC4=O)C5=O)CC3)cc2)ncc1Cl (centres unmarked) [UB-181095] | 0.1 to 1 | 0.1 to 1 | < 0.01 | > 1 | – | –
CNC(=O)c1ccccc1Nc1nc(Nc2ccc(N3CCN(C(=O)N[C@H]4CC[C@@H](NCCCOCC#Cc5ccc6c(c5)CN(C5CCC(=O)NC5=O)C6=O)CC4)CC3)cc2)ncc1Cl (some centres unmarked) [UB-181096] | 0.1 to 1 | 0.1 to 1 | < 0.01 | 0.1 to 1 | – | –
CNC(=O)c1ccccc1Nc1nc(Nc2ccc(N3CCN(C(=O)N[C@H]4C[C@H](NCCCOCCC#Cc5ccc6c(c5)CN(C5CCC(=O)NC5=O)C6=O)C4)CC3)cc2)ncc1Cl (some centres unmarked) [UB-181097] | > 1 | > 1 | 0.1 to 1 | > 1 | – | –
CNC(=O)c1ccccc1Nc1nc(Nc2ccc(N3CCN(C(=O)NCCCCOCCCCNC#Cc4cccc5c4CN(C4CCC(=O)NC4=O)C5=O)CC3)cc2)ncc1Cl (centres unmarked) [UB-181098] | 0.1 to 1 | 0.01 to 0.1 | < 0.01 | > 1 | – | –
CNC(=O)c1ccccc1Nc1nc(Nc2ccc(N3CCN(C(=O)NC4CCC(NCCCCOCC(=O)Nc5ccc6c(c5)CN(C5CCC(=O)NC5=O)C6=O)CC4)CC3)cc2)ncc1Cl (centres unmarked) [UB-181109] | > 1 | 0.1 to 1 | 0.01 to 0.1 | > 1 | – | –
CNC(=O)c1ccccc1Nc1nc(Nc2ccc(N3CCN(C(=O)NCCCOCCNCCC#Cc4ccc5c(c4)CN(C4CCC(=O)NC4=O)C5=O)CC3)cc2)ncc1Cl (centres unmarked) [UB-181110] | > 1 | 0.1 to 1 | 0.01 to 0.1 | > 1 | – | –
